Reference: patent publication US20250127907A1, “PARP INHIBITORS” (Stablix, Inc., priority 2023, published 2025)
Where two headings read alike, the source gives them in different places.

How the values were obtained:
[1] = system: Poly/Mono-ADP Ribose in U2OS cells; experiment: PAR in cell western assay (parylation) in U2OS cells; type: cell-based; details: read-out: Parylation (U2OS)
Method in brief: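 U2OS cells treated with compound for 6 h, then 2 mM H2O2 for 10 min to induce DNA damage. After methanol fixation, cells stained overnight at 4 °C with anti-mono/poly-ADP-ribose antibody and imaged by infrared in-cell western, normalized to CellTag 700; reported as % control inhibition.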

PARP1 [2] = target: T1, PARP1 (Homo sapiens, UniProt P09874); experiment: PARP1-enzyme assay (NAD/NADH-Glo biochemical assay); details: recombinant PARP1, NAD+ consumption
Method: The PARP enzyme catalyzes the transfer of ADP-Ribose from NAD+ onto PAR chains/histone substrates. The catalytic cycle is monitored indirectly with the NAD/NADH-Glo Assay kit from Promega. […] NAD+ consumed is determined by comparison to the no enzyme control.
• Recombinant PARP1 • NAD+/NAHD-Glow assay Kit • Activated DNA, 10 μg/mL • NAD+(Nicotinamide Adenine Dinucleotide), 500 nM • Protein substrate for PARP1: Core Histone from chicken, 10 μg/mL
The letter codes for the PARP1-enzyme assay include: A (<1 nM), B (>1-10 nM), C (>10-100 nM), D (>100-1000 nM), E (>1000 nM), and “-” is not tested. The letter codes for the PARP trapping assay, and parylation assay include: A (<10 nM), B (>10-100 nM), C (>100-1000 nM), […], E (>10000 nM), and “-” is not tested.
Target sequence in this assay (P09874 whole entry, species assumed): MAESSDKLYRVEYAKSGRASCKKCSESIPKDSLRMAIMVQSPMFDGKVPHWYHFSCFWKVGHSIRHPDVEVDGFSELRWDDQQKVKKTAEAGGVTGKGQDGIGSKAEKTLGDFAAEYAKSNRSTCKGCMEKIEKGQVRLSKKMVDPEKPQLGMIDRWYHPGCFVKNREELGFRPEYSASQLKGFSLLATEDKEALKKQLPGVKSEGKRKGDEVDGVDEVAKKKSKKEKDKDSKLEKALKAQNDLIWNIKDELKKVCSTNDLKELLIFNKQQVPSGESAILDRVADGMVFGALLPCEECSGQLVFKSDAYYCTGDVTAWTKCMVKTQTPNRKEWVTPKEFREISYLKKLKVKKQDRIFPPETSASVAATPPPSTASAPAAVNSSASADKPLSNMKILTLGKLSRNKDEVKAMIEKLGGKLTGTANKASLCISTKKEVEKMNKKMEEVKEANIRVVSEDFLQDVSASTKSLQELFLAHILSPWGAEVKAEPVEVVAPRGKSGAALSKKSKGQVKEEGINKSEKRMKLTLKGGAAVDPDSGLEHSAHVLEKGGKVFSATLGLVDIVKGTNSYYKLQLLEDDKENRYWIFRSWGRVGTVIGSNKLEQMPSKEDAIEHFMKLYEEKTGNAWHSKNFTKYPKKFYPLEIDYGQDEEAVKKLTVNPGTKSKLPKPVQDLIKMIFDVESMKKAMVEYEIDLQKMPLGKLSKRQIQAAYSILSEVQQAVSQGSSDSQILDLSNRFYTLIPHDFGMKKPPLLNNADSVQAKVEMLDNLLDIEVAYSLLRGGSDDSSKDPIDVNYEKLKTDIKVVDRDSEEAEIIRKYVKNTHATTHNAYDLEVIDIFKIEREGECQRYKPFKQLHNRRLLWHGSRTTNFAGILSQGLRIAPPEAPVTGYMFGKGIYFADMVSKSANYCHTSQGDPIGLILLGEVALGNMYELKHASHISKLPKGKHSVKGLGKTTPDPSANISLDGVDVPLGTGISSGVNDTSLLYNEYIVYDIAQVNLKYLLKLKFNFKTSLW

MDA-MB-436 cells = experiment: Cell proliferation assay (MDA-MB-436); type: cell-based; details: 7 days
PARP1 [3] = target: T1, PARP1; experiment: PARP trapping assay in U2OS cells; type: cell-based; set-up: endogenous in cells; host or cells: U2OS
Method in brief: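 U2OS cells co-treated with compounds and MMS for 4 h, then soluble proteins extracted with 0.5% Triton X-100, MeOH-fixed and immunostained for PARP1. Chromatin-bound PARP1 quantified as AF488 intensity per DAPI-segmented nucleus; potencies reported as letter-code bins.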
Target sequence in this assay (P09874 whole entry): as the sequence (P09874 whole entry, species assumed) above

HCC1806 cells = experiment: Cell proliferation assay (HCC1806); type: cell-based; details: Homo sapiens, 168 h, 7 days
A2780 cells = experiment: Cell proliferation assay (A2780); type: cell-based; details: 7 days
[4] = Homo sapiens, U2OS cells, 6 hrs, 2 mM H2O2
[5] = U2OS cells, MMS, 4 hrs, read-out: PARP Trapping (U2OS)

SMILES | IC50 [1, 4] | IC50 (PARP1 [2]) | IC50 (MDA-MB-436 cells; Homo sapiens, 168 h) | IC50 (PARP1 [3]; [5]) | IC50 (HCC1806 cells) | IC50 (A2780 cells; Homo sapiens, 168 h) | IC50 ([1]; U2OS cells, 6 hrs, 2 mM H2O2) | IC50 (MDA-MB-436 cells) | IC50 (A2780 cells) | IC50 ([1]; Homo sapiens, U2OS, 6 h) | IC50 (PARP1 [3])
COC12CCC(CNCC(=O)N3CCCC(c4cccc(C(=O)N[C@@H](C(=O)N5CCC(CN6CCN(CC(=O)N7CCN(C(=O)c8cc(Cc9n[nH]c(=O)c%10ccccc9%10)ccc8F)CC7)CC6)CC5)C5CCCCC5)c4)C3)(CC1)OC2 (some centres unmarked) [Compound I-165] | 100 to 1000 nM | < 1 nM | 10 to 100 nM | 100 to 1000 nM | < 10 nM |  |  |  |  |  | 
CCOc1cc(OC)ccc1CNCC(=O)N1CCCC(c2cccc(C(=O)N[C@@H](C(=O)NCc3cn(CCNCC(=O)N4CCN(C(=O)c5cc(Cc6n[nH]c(=O)c7ccccc67)ccc5F)CC4)nn3)C3CCCCC3)c2)C1 (some centres unmarked) [Compound I-29] | < 10 nM | < 1 nM | 1000 to 10000 nM |  | < 10 nM |  |  |  |  |  | 
CCOc1cc(OC)ccc1CNCC(=O)N1CCCC(c2cccc(C(=O)N[C@@H](C(=O)N3CCN(CC45CCC(C(=O)N6CCN(C(=O)c7cc(Cc8n[nH]c(=O)c9ccccc89)ccc7F)CC6)(CC4)CO5)CC3)C3CCCCC3)c2)C1 (some centres unmarked) [Compound I-166] | 100 to 1000 nM | < 1 nM | 10 to 100 nM | 10 to 100 nM | < 10 nM |  |  |  |  |  | 
CCOc1cc(OC)ccc1CNCC(=O)N1CCCC(c2cccc(C(=O)N[C@@H](C(=O)NCCOCCOCCOCCOCCNCC(=O)N3CCN(C(=O)c4cc(Cc5n[nH]c(=O)c6ccccc56)ccc4F)CC3)C3CCCCC3)c2)C1 (some centres unmarked) [Compound I-31] | < 10 nM | < 1 nM | 100 to 1000 nM |  | < 10 nM |  |  |  |  |  | 
CCc1cccc(-c2cnc(C(=O)N3CCC(CN4CCN(CC(=O)N5CCN(C(=O)c6cc(Cc7n[nH]c(=O)c8ccccc78)ccc6F)CC5)CC4)CC3)c(NC)c2)c1 [Compound I-418] | 100 to 1000 nM | < 1 nM | < 10 nM | 100 to 1000 nM |  | 100 to 1000 nM |  |  |  |  | 
O=C(N[C@@H](C(=O)N1CCN(CC2CCN(CC(=O)N3CCN(C(=O)c4cc(Cc5n[nH]c(=O)c6ccccc56)ccc4F)CC3)CC2)CC1)C1CCCCC1)c1cccc(C2CCCN(C(=O)COC3CC3)C2)c1 (some centres unmarked) [Compound I-353] | 100 to 1000 nM | < 1 nM | 10 to 100 nM | 100 to 1000 nM |  | 100 to 1000 nM |  |  |  |  | 
O=C(N[C@@H](C(=O)N1CCN(CC2CCN(CC(=O)N3CCN(C(=O)c4cc(Cc5n[nH]c(=O)c6ccccc56)ccc4F)CC3)CC2)CC1)C1CCCCC1)c1cc(C2CCCN(C(=O)CNCc3ccc(F)cc3F)C2)ccc1F (some centres unmarked) [Compound I-346] | 10 to 100 nM | < 1 nM | 10 to 100 nM | 100 to 1000 nM |  | 100 to 1000 nM |  |  |  |  | 
CCc1cccc(-c2cnc(C(=O)NCCCCCNCC(=O)N3CCN(C(=O)c4cc(Cc5n[nH]c(=O)c6ccccc56)ccc4F)CC3)c(NC(=O)CNCc3cccc(C)c3)c2)c1 [Compound I-64] | 100 to 1000 nM | < 1 nM | 10 to 100 nM | 100 to 1000 nM |  | 100 to 1000 nM |  |  |  |  | 
CCc1cccc(-c2cnc(C(=O)N3CCC(CN4CCN(CC(=O)N5CCN(C(=O)c6cc(Cc7n[nH]c(=O)c8ccccc78)ccc6F)CC5)CC4)CC3)c(NC3CC3)c2)c1 [Compound I-407] | 10 to 100 nM | < 1 nM | < 10 nM | 10 to 100 nM |  | 10 to 100 nM |  |  |  |  | 
CCc1cccc(-c2cnc(C(=O)N3CCC(CN4CCN(CC(=O)N5CCN(C(=O)c6cc(Cc7n[nH]c(=O)c8ccccc78)ccc6F)CC5)CC4)CC3)c(NC(=O)CNCc3cccc(C)c3)c2)c1 [Compound I-61] | 100 to 1000 nM | < 1 nM | 10 to 100 nM | 10 to 100 nM |  | 100 to 1000 nM |  |  |  |  | 
CCOc1cc(OC)ccc1CNCC(=O)N1CCC[C@H](c2cccc(C(=O)N[C@@H](C(=O)N3CCC(CN4CCN(CC(=O)N5CCN(C(=O)c6cc(Cc7n[nH]c(=O)c8ccccc78)ccc6F)CC5)CC4)CC3)C3CCCCC3)c2)C1 [Compound I-168] |  | < 1 nM |  | 10 to 100 nM |  |  | 100 to 1000 nM | < 10 nM | 10 to 100 nM |  | 
CCc1cccc(-c2cnc(C(=O)N3CCC(OC4CCN(CC(=O)N5CCN(C(=O)c6cc(Cc7n[nH]c(=O)c8ccccc78)ccc6F)CC5)CC4)CC3)c(NC(C)=O)c2)c1 [Compound I-404] | 10 to 100 nM | < 1 nM | < 10 nM | 100 to 1000 nM |  | 10 to 100 nM |  |  |  |  | 
O=C(N[C@@H](C(=O)N1CCN(CC2CCN(CC(=O)N3CCN(C(=O)c4cc(Cc5n[nH]c(=O)c6ccccc56)ccc4F)CC3)CC2)CC1)C1CCCCC1)c1cccc([C@@H]2CCCN(C(=O)CNC3CC3)C2)c1 [Compound I-365] | 10 to 100 nM | < 1 nM | 10 to 100 nM | 100 to 1000 nM |  | 1000 to 10000 nM |  |  |  |  | 
O=C(CNC1CC1)N1CCCC(c2cccc(C(=O)N3CCN(CC45CCC(C(=O)N6CCN(C(=O)c7cc(Cc8n[nH]c(=O)c9ccccc89)ccc7F)CC6)(CC4)CO5)CC3)c2)C1 (centres unmarked) [Compound I-377] | 10 to 100 nM | < 1 nM | < 10 nM | 10 to 100 nM |  | 10 to 100 nM |  |  |  |  | 
O=C(N[C@@H](C(=O)N1CCN(CC2CCN(CC(=O)N3CCN(C(=O)c4cc(Cc5n[nH]c(=O)c6ccccc56)ccc4F)CC3)CC2)CC1)C1CCCCC1)c1cccc(C2CCCN(C(=O)CNC3CC3)C2)c1 (some centres unmarked) [Compound I-183] | 100 to 1000 nM | < 1 nM | 10 to 100 nM | 100 to 1000 nM |  | 100 to 1000 nM |  |  |  |  | 
O=C(N[C@@H](C(=O)N1CCN(CC2CCN(CC(=O)N3CCN(C(=O)c4cc(Cc5n[nH]c(=O)c6ccccc56)ccc4F)CC3)CC2)CC1)C1CCCCC1)c1cccc(C2CCCN(C(=O)CNCc3ccc(F)cc3F)C2)c1 (some centres unmarked) [Compound I-184] | 100 to 1000 nM | < 1 nM | 10 to 100 nM | 100 to 1000 nM |  | 100 to 1000 nM |  |  |  |  | 
CCc1cccc(-c2cnc(C(=O)N3CCN(CC4CCN(CC(=O)N5CCN(C(=O)c6cc(Cc7n[nH]c(=O)c8ccccc78)ccc6F)CC5)CC4)CC3)c(NC(=O)CNCc3ccncn3)c2)c1 [Compound I-238] | 100 to 1000 nM | < 1 nM | 10 to 100 nM | 100 to 1000 nM |  | 1000 to 10000 nM |  |  |  |  | 
O=C(N[C@@H](C(=O)N1CCN(CC2CCN(CC(=O)N3CCN(C(=O)c4cc(Cc5n[nH]c(=O)c6ccccc56)ccc4F)CC3)CC2)CC1)C1CCCCC1)c1cc(C2CCCN(C(=O)CNC3CC3)C2)ccc1F (some centres unmarked) [Compound I-323] |  | < 1 nM | < 10 nM |  |  | 100 to 1000 nM |  |  |  | 100 to 1000 nM | 100 to 1000 nM
CCc1cccc(-c2cnc(C(=O)N3CCC(CN4CCN(CC(=O)N5CCN(C(=O)c6cc(Cc7n[nH]c(=O)c8ccccc78)ccc6F)CC5)CC4)CC3)c(OC(F)(F)F)c2)c1 [Compound I-420] | 100 to 1000 nM | < 1 nM | < 10 nM | 10 to 100 nM |  | 100 to 1000 nM |  |  |  |  | 
CCOc1cc(OC)ccc1COCC(=O)N1CCCC(c2cccc(C(=O)N[C@@H](C(=O)N3CCN(CC4CCN(CC(=O)N5CCN(C(=O)c6cc(Cc7n[nH]c(=O)c8ccccc78)ccc6F)CC5)CC4)CC3)C3CCCCC3)c2)C1 (some centres unmarked) [Compound I-354] | 100 to 1000 nM | < 1 nM | 10 to 100 nM | 10 to 100 nM |  | 10 to 100 nM |  |  |  |  | 
